Nine compounds from ChEMBL document CHEMBL1201862, “PubChem BioAssay data set” (2004) can be followed below.

Among the test systems are ACHN; HOP-92; MOLT-4; A498; RPMI-8226; SF-295; HCT-15; SK-OV-3; NCI-H226; RXF 393; IGROV-1; MDA-MB-231; M14; OVCAR-5; SR; COLO 205; EKVX; TK-10.
Common to all, as to test: NCI anticancer screen, dose series, 48 h

Structures are written as SMILES.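 Compound exposure: 48 hours, 5 concentrations, 96-well plates. At the GI50, growth is halved.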 The source made the active and inactive calls. Rule as the data show it: active = GI50 up to about 1.1 µM and inactive = higher. Bounds are passed on as bounds.

On to `CN1C(=O)C(O)CC1c1ccccc1C(F)(F)F` (configuration not stated), for which the GI50 in the assay on ACHN, with HOP-92, with MOLT-4, in the assay with A498, in the assay with RPMI-8226 and in the assay with SF-295 was > 100 µM (inactive) each time. Also, the GI50 with HCT-15 is > 100 µM; in the assay on SK-OV-3, > 100 µM (inactive); in the assay with NCI-H226, > 100 µM (inactive); with RXF 393, > 100 µM (inactive); with IGROV-1, > 100 µM (inactive); in the assay on MDA-MB-231 it was > 100 µM (inactive). Moreover, the GI50 is > 100 µM (inactive) in the assay on M14; > 100 µM (inactive) in the assay on OVCAR-5; > 10 µM (inactive) in the assay on SR; > 100 µM (inactive) in the assay on COLO 205; > 100 µM (inactive) in the assay on EKVX.

For `C[C@H]1C=C2C(=O)O[C@H]3CC[C@@H](C1)[C@@]23O`, the GI50 is 4.97 µM (inactive) in the assay with ACHN; 5.25 µM (inactive) in the assay on HOP-92; 1.21 µM (inactive) in the assay on MOLT-4; 10.6 µM (inactive) in the assay with A498; 29.6 µM (inactive) in the assay on RPMI-8226; 4.4 µM (inactive) in the assay on SF-295. Besides, the GI50 in the assay with HCT-15 was 3.65 µM; in the assay with SK-OV-3, 8 µM (inactive); in the assay on TK-10, 4.68 µM (inactive); in the assay on NCI-H226 it was 12.5 µM (inactive); in the assay on RXF 393 it was 2.79 µM (inactive); in the assay on IGROV-1, 6.03 µM (inactive). For the same compound, the GI50 in the assay on M14 was 3.83 µM (inactive); with OVCAR-5 it was 4.33 µM (inactive); in the assay with SR, 0.233 µM (active); with COLO 205, 3.26 µM (inactive); with EKVX, 2.67 µM (inactive).

With `COC(=O)[C@@H]1C[C@H](c2ccc(OC)c(OC)c2)OC1=O.COC(=O)[C@H]1C[C@H](c2ccc(OC)c(OC)c2)OC1=O`, the GI50 in the assay with ACHN, in the assay on HOP-92, with MOLT-4, with A498, in the assay with RPMI-8226 and in the assay with SF-295 was > 100 µM (inactive) each time. For the same compound, the GI50 in the assay with HCT-15 is > 100 µM; with SK-OV-3, > 100 µM (inactive); with TK-10, > 100 µM (inactive); in the assay with NCI-H226, > 100 µM (inactive); with RXF 393, > 100 µM (inactive); with IGROV-1, > 100 µM (inactive). For the same compound, the GI50 with M14, in the assay on OVCAR-5, with SR, in the assay on COLO 205 and in the assay on EKVX was > 100 µM (inactive) throughout.

As for `CNc1nnc(CNc2ccc(-c3nnc(NC)n3N)cc2)n1N`, the GI50 with ACHN was > 100 µM (inactive); in the assay with HOP-92, > 100 µM (inactive); with MOLT-4, > 100 µM (inactive); with A498 it was > 100 µM (inactive); in the assay on SF-295 it was > 100 µM (inactive); in the assay on HCT-15, > 100 µM. Further, the GI50 with SK-OV-3, with TK-10, in the assay on NCI-H226, with RXF 393, with IGROV-1 and in the assay on MDA-MB-231 was > 100 µM (inactive) in each case. The GI50 with M14, with OVCAR-5, in the assay with COLO 205 and with EKVX was > 100 µM (inactive) in each case.

For `CC(CO)CCC(O)C(C)(O)C1CCC2(O)C3=CC(=O)C4CC(O)C(O)CC4(C)C3CCC12C` (configuration not stated), the GI50 in the assay on ACHN, with HOP-92, in the assay with MOLT-4, with A498, in the assay on RPMI-8226 and in the assay on SF-295 was > 100 µM (inactive) each time. The GI50 is > 100 µM in the assay on HCT-15; > 100 µM (inactive) with SK-OV-3; > 100 µM (inactive) in the assay with NCI-H226; > 100 µM (inactive) with RXF 393; > 100 µM (inactive) in the assay on MDA-MB-231; > 100 µM (inactive) in the assay on M14. The GI50 in the assay on OVCAR-5, in the assay on SR, in the assay with COLO 205 and in the assay with EKVX was > 100 µM (inactive) each time.

On to `CC(C)(C)OC(=O)[C@H]1CCC(=S)N1Cc1ccccc1`, for which the GI50 with ACHN, with HOP-92, with MOLT-4, in the assay on A498, in the assay on RPMI-8226 and in the assay on SF-295 was > 100 µM (inactive) throughout. Also, the GI50 is > 100 µM with HCT-15; > 100 µM (inactive) with SK-OV-3; > 100 µM (inactive) in the assay on TK-10; > 100 µM (inactive) in the assay on NCI-H226; > 100 µM (inactive) with RXF 393; > 100 µM (inactive) with IGROV-1. In addition, the GI50 with MDA-MB-231, in the assay on M14, in the assay on OVCAR-5, with SR, in the assay on COLO 205 and in the assay on EKVX was > 100 µM (inactive) in each case.

Turning to `COC1=CC(=O)C2[C@H]3Cc4ccccc4[C@H]3C2(C)C1=O` (some centres not stated), the GI50 in the assay on ACHN was > 100 µM (inactive); in the assay with HOP-92, > 100 µM (inactive); in the assay on MOLT-4 it was 91.6 µM (inactive); with A498 it was > 100 µM (inactive); with RPMI-8226 it was > 100 µM (inactive); in the assay with SF-295, > 100 µM (inactive). Moreover, the GI50 is 94.6 µM in the assay on HCT-15; > 100 µM (inactive) in the assay with SK-OV-3; > 100 µM (inactive) with TK-10; 81.8 µM (inactive) in the assay on NCI-H226; > 100 µM (inactive) in the assay with RXF 393; > 100 µM (inactive) with IGROV-1. Further, the GI50 in the assay on M14 was > 100 µM (inactive); with OVCAR-5, > 100 µM (inactive); in the assay on SR it was 70.3 µM (inactive); in the assay on COLO 205, > 100 µM (inactive); with EKVX, > 100 µM (inactive).

As to `C/C(N)=[N+](/C)[O-]`, the GI50 in the assay on ACHN is 31.6 µM (inactive); in the assay with HOP-92, > 100 µM (inactive); with MOLT-4 it was > 100 µM (inactive); with A498, > 100 µM (inactive); in the assay with RPMI-8226 it was > 100 µM (inactive); in the assay with SF-295 it was > 100 µM (inactive). Besides, the GI50 is 19.9 µM in the assay with HCT-15; > 100 µM (inactive) in the assay with SK-OV-3; > 100 µM (inactive) with TK-10; > 100 µM (inactive) with NCI-H226; > 100 µM (inactive) in the assay with RXF 393; > 100 µM (inactive) in the assay with IGROV-1. Further, the GI50 with M14 is > 100 µM (inactive); in the assay with OVCAR-5 it was > 100 µM (inactive); in the assay with SR, 23.8 µM (inactive); with COLO 205, 17.2 µM (inactive); in the assay with EKVX it was > 100 µM (inactive).

For the compound `COc1cc(C(=O)N[C@H]2CCc3cc(OC)c(OC)c(OC)c3-c3ccc(SC)c(=O)cc32)cc(OC)c1OC`, the GI50 is 0.136 µM (active) with ACHN; 0.06 µM (active) in the assay on HOP-92; 0.00916 µM (active) in the assay with MOLT-4; 0.0403 µM (active) with A498; 0.0115 µM (active) in the assay on RPMI-8226; 0.00962 µM (active) in the assay with SF-295. For the same compound, the GI50 is 0.444 µM in the assay with HCT-15; 0.00655 µM (active) in the assay on SK-OV-3; 0.215 µM (active) in the assay on TK-10; < 0.01 µM (active) with NCI-H226; 0.00752 µM (active) in the assay with RXF 393; 0.0166 µM (active) with IGROV-1. The GI50 in the assay with M14 was 0.00832 µM (active); with OVCAR-5, 0.0107 µM (active); in the assay on SR it was 0.0126 µM (active); with COLO 205 it was 0.0342 µM (active); with EKVX, 0.0106 µM (active).
